Data taken from doi:10.1101/2024.08.25.609621 (bioRxiv, 2024).
pIC50, pKi: −log10 of the molar value. Read-outs that look alike come from different tables or passages of the source.

Columns and labels:
[1] = biological target: SARS-CoV-2 NSP3 macrodomain (Mac1) (Severe acute respiratory syndrome coronavirus 2, UniProt P0DTD1); test: biochemical; format: binding; conditions: for pIC50 / pKi: dose-response
[2] = biological target: SARS-CoV-2 NSP3 macrodomain (Mac1), P43 crystal form (Severe acute respiratory syndrome coronavirus 2, UniProt P0DTD1); format: binding; conditions: for Number of isomers bound: ligand modeling in Mac1 crystal soak; for Isomers modeled: stereoisomer(s) of ligand modeled in Mac1 crystal structure
[3] = Single dose, concentration 200 μM, read-out: Average % competition
[4] = preliminary screen, compound at 200 μM, mean of 3-4 technical replicates, read-out: % competition in HTRF assay
[5] = SARS CoV-2 macrodomain HTRF assay
[6] = SARS CoV-2 macrodomain HTRF assay, read-out: IC50
[7] = SARS CoV-2 macrodomain HTRF assay, read-out: Ki
[8] = Single dose, concentration 200 μM, read-out: SARS CoV-2 macrodomain HTRF assay: Average % competition
[9] = read-out: SARS CoV-2 macrodomain HTRF assay: IC50
[10] = read-out: SARS CoV-2 macrodomain HTRF assay: Ki
[11] = from SARS CoV-2 macrodomain HTRF assay

Structure (SMILES) | inhibition at 200 µM [1, 3] [%] | inhibition at 200 µM [1, 4] [%] | Number of isomers bound [2] | Isomers modeled [2] | PanDDA run, TFA/DMSO background map: 1-BDC ([2]; soak concentration 10 mM) | PanDDA run, TFA/DMSO background map: Hit ([2]; soak concentration 10 mM) | also measured
O=C(O)C(F)(F)F.OCC1(Nc2ncnc3[nH]ccc23)CC1 [AVI-3688] | 72 | 72 | 1 | achiral | – | – | PanDDA run, TFA/DMSO background map: 1-BDC ([2]; crystal soak 10 mM): 0.17; PanDDA run, TFA/DMSO background map: Hit ([2]; crystal soak 10 mM): TRUE
OCC(CC1CCCCC1)Nc1ncnc2[nH]ccc12 (stereo not drawn) [AVI-3690] | 66 | 68 | 1 | – | – | – | –
OCC(CC1CCCC1)Nc1ncnc2[nH]ccc12 (stereo not drawn) [AVI-3691] | 52 | 53 | 1 | – | – | – | PanDDA run, TFA/DMSO background map: 1-BDC ([2]; crystal soak 10 mM): 0.1; PanDDA run, TFA/DMSO background map: Hit ([2]; crystal soak 10 mM): TRUE
O=C(O)C(F)(F)F.OCC1(Nc2ncnc3[nH]ccc23)CCCC1 [AVI-3692] | – | – | 1 | achiral | – | – | Ligand efficiency (binding enery per heavy atom) [1, 5]: 0.35; pIC50 [1, 6]: 4.31; pKi [1, 7]: 4.34; PanDDA run, TFA/DMSO background map: 1-BDC ([2]; crystal soak 10 mM): 0.11; PanDDA run, TFA/DMSO background map: Hit ([2]; crystal soak 10 mM): TRUE
OCC(Nc1ncnc2[nH]ccc12)C1CCc2ccccc21 (stereo not drawn) [AVI-3693] | 78 | 78 | 2 | RR,SR | – | – | –
CCC(CC)(CO)Nc1ncnc2[nH]ccc12 [AVI-3695] | – | – | 1 | achiral,achiral | – | – | Ligand efficiency (binding enery per heavy atom) [1, 5]: 0.36; pIC50 [1, 6]: 4.40; pKi [1, 7]: 4.43
OCC(Cc1ccccn1)Nc1ncnc2[nH]ccc12 (stereo not drawn) [AVI-3696] | 34 | 34 | 2 | R,S | – | – | –
CCC(C)(CO)Nc1ncnc2[nH]ccc12 (stereo not drawn) [AVI-3697] | – | – | 1 | – | – | – | Ligand efficiency (binding enery per heavy atom) [1, 5]: 0.39; pIC50 [1, 6]: 4.44; pKi [1, 7]: 4.47
OCC(O)C1CCCN1c1ncnc2[nH]ccc12 (stereo not drawn) [AVI-3701] | – | 54 | 1 | – | 0.16 | TRUE | inhibition at 200 µM [1, 8]: 54%
O=C(O)C(F)(F)F.OC[C@H]1CC2(CN1c1ncnc3[nH]ccc13)OCCO2 [AVI-3702] | – | 17 | 1 | – | 0.13 | TRUE | inhibition at 200 µM [1, 8]: 17%
OCC(Cc1cncs1)Nc1ncnc2[nH]ccc12 (stereo not drawn) [AVI-3703] | 28 | 28 | 1 | – | 0.1 | TRUE | –
CC1(C)C[C@@H](CO)N(c2ncnc3[nH]ccc23)C1.O=C(O)C(F)(F)F [AVI-3704] | – | – | 1 | – | – | – | pIC50 [1, 9]: 4.54; pKi [1, 10]: 4.57; Ligand efficiency (binding enery per heavy atom) [1, 11]: 0.35
OCC(Cc1ccoc1)Nc1ncnc2[nH]ccc12 (stereo not drawn) [AVI-3705] | 64 | 64 | 1 | – | 0.14 | TRUE | –
OCC1CC2(CCOCC2)CN1c1ncnc2[nH]ccc12 (stereo not drawn) [AVI-3707] | – | 39 | 1 | – | 0.15 | TRUE | inhibition at 200 µM [1, 8]: 39%
OCC1CC2(CCCC2)CN1c1ncnc2[nH]ccc12 (stereo not drawn) [AVI-3708] | – | – | 1 | – | – | – | pIC50 [1, 9]: 4.57; pKi [1, 10]: 4.60; Ligand efficiency (binding enery per heavy atom) [1, 11]: 0.32
OCC(COCc1ccccc1)Nc1ncnc2[nH]ccc12 (stereo not drawn) [AVI-3709] | 29 | 29 | 2 | S,R | 0.16 | TRUE | –
O=C(O)C(F)(F)F.OC[C@@H]1CC2(CC2)CN1c1ncnc2[nH]ccc12 [AVI-3710] | – | 57 | 1 | S,S | 0.23 | TRUE | inhibition at 200 µM [1, 8]: 57%
OCC(Cc1cccs1)Nc1ncnc2[nH]ccc12 (stereo not drawn) [AVI-3711] | 63 | 63 | 1 | – | 0.16 | TRUE | –
OCC1C2CCC(C2)N1c1ncnc2[nH]ccc12 (stereo not drawn) [AVI-3713] | – | – | 1 | SSR | – | – | pIC50 [1, 9]: 4.57; pKi [1, 10]: 4.60; Ligand efficiency (binding enery per heavy atom) [1, 11]: 0.35
